From PubChem BioAssay AID1918938 (Molecular Pharmacology Branch, DTP, NCI, 2023)

Tested on: 556581-035-R-J1-PDC complex spheroid viability
Assay: Anticancer human tumor 556581-035-R-J1-PDC patient-derived ovarian carcinoma cell line growth inhibition
Conditions: for IC50: curve of first compound; for viability, T/C: stronger effect = lower value
Procedure, shortened: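 Complex spheroids of tumor cells with HUVEC and human MSCs, exposed to iadademstat combined with other agents. Each agent tested in half-log steps from near clinical Cmax (else 10 microM top), DMSO ≤0.25%.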

[1] = second compound 0.1 µM, first compound 0.0316 µM
[2] = second compound 0.1 µM, first compound 0.1 µM
[3] = second compound 0.316 µM, first compound 0.0316 µM
[4] = second compound 0.316 µM, first compound 0.1 µM
[5] = second compound 1 µM, first compound 0.0316 µM
[6] = second compound 1 µM, first compound 0.1 µM
[7] = second compound 3.16 µM, first compound 0.0316 µM
[8] = second compound 3.16 µM, first compound 0.1 µM
[9] = second compound 10 µM, first compound 0.0316 µM
[10] = second compound 10 µM, first compound 0.1 µM
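Also: spheroids exposed to agents for seven days.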
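For viability, T/C in this document: 100% = DMSO vehicle control wells.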

Work on `CC1(C)CCC(CN2CCN(c3ccc(C(=O)NS(=O)(=O)c4ccc(NCC5CCOCC5)c([N+](=O)[O-])c4)c(Oc4cnc5[nH]ccc5c4)c3)CC2)=C(c2ccc(Cl)cc2)C1` + NC1CC1c1ccc(-c2cccc(O)c2)cc1 yielded an IC50 (second compound 0.1 µM) of 4100 nM, an IC50 (second compound 0.316 µM) of 3940 nM and an IC50 (second compound 1 µM) of 4040 nM. The IC50 (second compound 3.16 µM) was 3820 nM, the IC50 (second compound 10 µM) was 3230 nM and the viability, T/C [1] was 89.8%. It also gave a viability, T/C [2] of 85.4%, a viability, T/C (second compound 0.1 µM, first compound 0.316 µM) of 73.2% and a viability, T/C (second compound 0.1 µM, first compound 1 µM) of 76.5%. For the same compound, the viability, T/C (second compound 0.1 µM, first compound 3.16 µM) was 65.5%, the viability, T/C (second compound 0.1 µM, first compound 10 µM) was 3.69% and the viability, T/C [3] was 83.2%. The viability, T/C [4] was 82%, the viability, T/C (second compound 0.316 µM, first compound 0.316 µM) was 73.2% and the viability, T/C (second compound 0.316 µM, first compound 1 µM) was 75.4%. For the same compound, the viability, T/C (second compound 0.316 µM, first compound 3.16 µM) was 61.6%, the viability, T/C (second compound 0.316 µM, first compound 10 µM) was 4.26% and the viability, T/C [5] was 82.6%. The viability, T/C [6] was 87%, the viability, T/C (second compound 1 µM, first compound 0.316 µM) was 81.9% and the viability, T/C (second compound 1 µM, first compound 1 µM) was 65.3%. For the same compound, the viability, T/C (second compound 1 µM, first compound 3.16 µM) was 67.4%, the viability, T/C (second compound 1 µM, first compound 10 µM) was 5.26% and the viability, T/C [7] was 83.5%. For the same compound, the viability, T/C [8] was 90.3%, the viability, T/C (second compound 3.16 µM, first compound 0.316 µM) was 72.2% and the viability, T/C (second compound 3.16 µM, first compound 1 µM) was 73.9%. It also gave a viability, T/C (second compound 3.16 µM, first compound 3.16 µM) of 61.3%, a viability, T/C (second compound 3.16 µM, first compound 10 µM) of 4.73% and a viability, T/C [9] of 85.4%. It also gave a viability, T/C [10] of 81.7%, a viability, T/C (second compound 10 µM, first compound 0.316 µM) of 75.6% and a viability, T/C (second compound 10 µM, first compound 1 µM) of 65.4%. The viability, T/C (second compound 10 µM, first compound 3.16 µM) was 55.2% and the viability, T/C (second compound 10 µM, first compound 10 µM) was 3.86%.

`Cn1ncnc1C1c2n[nH]c(=O)c3cc(F)cc(c23)NC1c1ccc(F)cc1` (stereo not given) + NC1CC1c1ccc(-c2cccc(O)c2)cc1 was tested, and the IC50 (second compound 0.1 µM) was > 100 nM, the IC50 (second compound 0.316 µM) was > 100 nM and the IC50 (second compound 1 µM) was > 100 nM. For the same compound, the IC50 (second compound 3.16 µM) was > 100 nM, the IC50 (second compound 10 µM) was > 100 nM and the viability, T/C (second compound 0.1 µM, first compound 0.000316 µM) was 90.1%. The viability, T/C (second compound 0.1 µM, first compound 0.001 µM) was 89.6%, the viability, T/C (second compound 0.1 µM, first compound 0.00316 µM) was 87.5% and the viability, T/C (second compound 0.1 µM, first compound 0.01 µM) was 88.7%. It also gave a viability, T/C [1] of 96.2%, a viability, T/C [2] of 81.4% and a viability, T/C (second compound 0.316 µM, first compound 0.000316 µM) of 89.6%. It also gave a viability, T/C (second compound 0.316 µM, first compound 0.001 µM) of 98.1%, a viability, T/C (second compound 0.316 µM, first compound 0.00316 µM) of 80.3% and a viability, T/C (second compound 0.316 µM, first compound 0.01 µM) of 84.9%. It also gave a viability, T/C [3] of 94.5%, a viability, T/C [4] of 74.1% and a viability, T/C (second compound 1 µM, first compound 0.000316 µM) of 82.8%. For the same compound, the viability, T/C (second compound 1 µM, first compound 0.001 µM) was 88.5%, the viability, T/C (second compound 1 µM, first compound 0.00316 µM) was 109% and the viability, T/C (second compound 1 µM, first compound 0.01 µM) was 81.6%. It also gave a viability, T/C [5] of 87%, a viability, T/C [6] of 81.8% and a viability, T/C (second compound 3.16 µM, first compound 0.000316 µM) of 94.4%. The viability, T/C (second compound 3.16 µM, first compound 0.001 µM) was 90%, the viability, T/C (second compound 3.16 µM, first compound 0.00316 µM) was 81.5% and the viability, T/C (second compound 3.16 µM, first compound 0.01 µM) was 80.5%. It also gave a viability, T/C [7] of 77.7%, a viability, T/C [8] of 91.6% and a viability, T/C (second compound 10 µM, first compound 0.000316 µM) of 86.8%. For the same compound, the viability, T/C (second compound 10 µM, first compound 0.001 µM) was 83.2%, the viability, T/C (second compound 10 µM, first compound 0.00316 µM) was 86.5% and the viability, T/C (second compound 10 µM, first compound 0.01 µM) was 87.2%. For the same compound, the viability, T/C [9] was 75.3% and the viability, T/C [10] was 88.2%.

Compound `NS(=O)(=O)OCC1CC(n2ccc3c(NC4CCc5ccccc54)ncnc32)CC1O` (stereo not given) + NC1CC1c1ccc(-c2cccc(O)c2)cc1 has an IC50 (second compound 0.1 µM) of 321 nM, an IC50 (second compound 0.316 µM) of 280 nM and an IC50 (second compound 1 µM) of 334 nM. It also gave an IC50 (second compound 3.16 µM) of 255 nM, an IC50 (second compound 10 µM) of 134 nM and a viability, T/C (second compound 0.1 µM, first compound 0.00949 µM) of 104%. It also gave a viability, T/C (second compound 0.1 µM, first compound 0.03 µM) of 81.6%, a viability, T/C (second compound 0.1 µM, first compound 0.0949 µM) of 66.4% and a viability, T/C (second compound 0.1 µM, first compound 0.3 µM) of 53.8%. It also gave a viability, T/C (second compound 0.1 µM, first compound 0.949 µM) of 35.4%, a viability, T/C (second compound 0.1 µM, first compound 3 µM) of 15.2% and a viability, T/C (second compound 0.316 µM, first compound 0.00949 µM) of 96.3%. The viability, T/C (second compound 0.316 µM, first compound 0.03 µM) was 81%, the viability, T/C (second compound 0.316 µM, first compound 0.0949 µM) was 66.1% and the viability, T/C (second compound 0.316 µM, first compound 0.3 µM) was 53.6%. For the same compound, the viability, T/C (second compound 0.316 µM, first compound 0.949 µM) was 27%, the viability, T/C (second compound 0.316 µM, first compound 3 µM) was 18.5% and the viability, T/C (second compound 1 µM, first compound 0.00949 µM) was 92.5%. For the same compound, the viability, T/C (second compound 1 µM, first compound 0.03 µM) was 81.4%, the viability, T/C (second compound 1 µM, first compound 0.0949 µM) was 77.5% and the viability, T/C (second compound 1 µM, first compound 0.3 µM) was 51.7%. It also gave a viability, T/C (second compound 1 µM, first compound 0.949 µM) of 29.5%, a viability, T/C (second compound 1 µM, first compound 3 µM) of 20.7% and a viability, T/C (second compound 3.16 µM, first compound 0.00949 µM) of 98.9%. For the same compound, the viability, T/C (second compound 3.16 µM, first compound 0.03 µM) was 75.7%, the viability, T/C (second compound 3.16 µM, first compound 0.0949 µM) was 68.5% and the viability, T/C (second compound 3.16 µM, first compound 0.3 µM) was 45.9%. For the same compound, the viability, T/C (second compound 3.16 µM, first compound 0.949 µM) was 32.6%, the viability, T/C (second compound 3.16 µM, first compound 3 µM) was 17.4% and the viability, T/C (second compound 10 µM, first compound 0.00949 µM) was 87.8%. The viability, T/C (second compound 10 µM, first compound 0.03 µM) was 74.4%, the viability, T/C (second compound 10 µM, first compound 0.0949 µM) was 56.4% and the viability, T/C (second compound 10 µM, first compound 0.3 µM) was 35.2%. It also gave a viability, T/C (second compound 10 µM, first compound 0.949 µM) of 20.3% and a viability, T/C (second compound 10 µM, first compound 3 µM) of 8.52%.
